Data: patent US8362000B2, “Azetidinyl diamides as monoacylglycerol lipase inhibitors” (Janssen Pharmaceutica NV, priority 2009, dated 2013)
Residue numbers refer to the chain shown, from its start. Read-outs that look alike come from different tables or passages of the source.

How the values were obtained:
[1] = molecular target: T1, mutant MGL (Homo sapiens, UniProt Q99685, L169S/L176S); assay: MGL ThermoFluor assay - mutant; assay type: binding
T1 sequence (Q99685 1-303 L169S/L176S): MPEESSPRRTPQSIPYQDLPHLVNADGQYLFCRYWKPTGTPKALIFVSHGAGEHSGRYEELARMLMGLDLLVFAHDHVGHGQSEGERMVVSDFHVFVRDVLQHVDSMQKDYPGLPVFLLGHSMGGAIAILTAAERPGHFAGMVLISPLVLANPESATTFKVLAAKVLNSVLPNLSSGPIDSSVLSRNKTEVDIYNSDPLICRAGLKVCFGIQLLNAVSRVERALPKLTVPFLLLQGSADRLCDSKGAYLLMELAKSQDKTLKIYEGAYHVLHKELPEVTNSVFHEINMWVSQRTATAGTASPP

[2] = molecular target: T2, purified wild type MGL (wt-MGLL 6H-11-313) (Homo sapiens, UniProt Q99685)
T2 sequence (Q99685 1-303): T1 sequence (Q99685 1-303 L169S/L176S) with S169L, S176L

[3] = ThermoFluor concentration-response, read-out: MGL mutant ThermoFluor Kd
[4] = ThermoFluor, compound concentration measured by qNMR, read-out: MGL mutant ThermoFluor qKd (μM) (using qNMR conc.)
[5] = ThermoFluor thermal stability binding assay, read-out: MGL mutant ThermoFluor Kd
[6] = compound concentration measured by qNMR, read-out: MGL mutant ThermoFluor qKd (using qNMR conc.)
[7] = ThermoFluor, compound concentration measured by qNMR, read-out: MGL mutant ThermoFluor qKd (using qNMR conc.)

Row | Structure (SMILES) | Kd [1, 3] | IC50 [2] | other results
1 | O=C(c1nccs1)N1CC(N2CCN(C(=O)c3cc4cc(C(F)(F)F)ccc4s3)C(c3ccccc3)C2)C1 (stereo not shown) [Cpd 804] | 0.105 µM | 1990 nM | 
2 | O=C(c1cc(-c2cccc(C(F)(F)F)c2)cs1)N1CC(N2CCN(C(=O)c3nccs3)CC2)C1 [Cpd 1321] |  | < 5 nM | Kd [1, 4]: 0.067 µM
3 | O=C(c1cccnc1)c1c[nH]c2cc(C(=O)N3CC(N4CCN(C(=O)c5nccs5)CC4)C3)ccc12 [Cpd 950] |  | 1500 nM | Kd [1, 6]: 0.883 µM
4 | O=C(c1ccc2c(c1)[nH]c(=O)n2CCC(F)(F)F)N1CC(N2CCN(C(=O)c3nccs3)CC2)C1 [Cpd 938] | 0.091 µM | 698 nM | 
5 | O=C(c1ccc(OCc2cncc(Cl)c2)cc1)N1CC(N2CCN(C(=O)C(F)(F)F)CC2)C1 [Cpd 979] |  | 648 nM | Kd [1, 6]: 1.14 µM
6 | Cc1c(C(=O)N2CC(N3CCN(C(=O)c4nccs4)CC3)C2)sc2ccc(C(F)(F)F)cc12 [Cpd 897] |  | < 5 nM | Kd [1, 5]: 0.002 µM
7 | O=C(c1nccs1)N1CCN(C2CN(C(=O)c3cccc4oc(-c5cccc(Cl)c5)nc34)C2)CC1 [Cpd 1191] |  | 105 nM | Kd [1, 5]: 0.011 µM
8 | O=C(c1cc2ccc(-c3cccnc3F)cc2[nH]1)N1CC(N2CCN(C(=O)c3nccs3)CC2)C1 [Cpd 1244] |  | 463 nM | Kd [1, 4]: 0.589 µM
9 | O=C(c1ccccc1)c1c[nH]c(C(=O)N2CC(N3CCN(C(=O)c4nccs4)CC3)C2)c1 [Cpd 874] |  | 15200 nM | Kd [1, 7]: 8.46 µM
10 | O=C(c1ccc(-c2cccc(C(F)(F)F)c2)cc1)N1CC(N2CCN(C(=O)C3CC3)CC2)C1 [Cpd 1057] |  | 6 nM | Kd [1, 4]: 0.016 µM
11 | N#Cc1ccc(N2CCC(C(=O)N3CC(N4CCN(C(=O)c5nccs5)CC4)C3)CC2)cc1 [Cpd 646] | 1.61 µM | 7160 nM | 
12 | Cc1c(C(=O)N2CCN(C3CN(C(=O)c4ccc[nH]4)C3)CC2)sc2cc(C(F)(F)F)ccc12 [Cpd 731] | 0.016 µM | 238 nM | 
13 | Cc1c(C(=O)N2CCN(C3CN(C(=O)c4nc(C(F)(F)F)cs4)C3)CC2)sc2cc(C(F)(F)F)ccc12 [Cpd 814] | > 31 µM | 2430 nM | 
14 | O=C(Nc1ccc(C(=O)N2CC(N3CCN(C(=O)c4nccs4)CC3)C2)cc1)C1CCCCC1 [Cpd 709] | 0.015 µM | 118 nM | 
15 | O=C(c1ccc(Oc2ccc(Cl)cn2)cc1)N1CC(N2CCN(C(=O)c3nccs3)CC2)C1 [Cpd 717] | 0.067 µM | 147 nM | 
16 | O=C(c1cn2cc(Br)ccc2n1)N1CC(N2CCN(C(=O)c3nccs3)CC2)C1 [Cpd 873] |  | 14700 nM | Kd [1, 7]: 9.2 µM
17 | COCCOc1ccc(C(=O)N2CC(N3CCN(C(=O)c4nccs4)CC3)C2)cc1 [Cpd 782] |  | 1070 nM | Kd [1, 7]: 0.463 µM
18 | O=C(c1ccc(-c2ccccc2)cc1)N1CC(N2CCN(C(=O)C3CCC3)CC2)C1 [Cpd 1232] |  | 326 nM | Kd [1, 5]: 0.345 µM
19 | O=C(c1ccc2[nH]c(C3CCCCC3)nc2c1)N1CC(N2CCN(C(=O)c3cscn3)CC2)C1 [Cpd 800] | 1.1 µM | 1700 nM | 
20 | O=C(c1ccc2c(ccn2-c2cncnc2)c1)N1CC(N2CCN(C(=O)c3nccs3)CC2)C1 [Cpd 1263, 1-Pyrimidin-5-yl-5-({3-[4-(1,3-thiazol-2-ylcarbonyl)piperazin-1-yl]azetidin-1-yl}carbonyl)-1H-indole] |  | 968 nM | Kd [1, 7]: 0.215 µM
21 | O=C(c1ccc2c(c1)CCN(C(=O)C1CCC(F)(F)CC1)C2)N1CC(N2CCN(C(=O)c3nccs3)CC2)C1 [Cpd 729] |  | 236 nM | Kd [1, 5]: 0.185 µM
22 | O=C(c1ccc(-c2cccc(C(F)(F)F)c2)cc1)N1CC(N2CCN(C(=O)c3ccon3)CC2)C1 [Cpd 1145] |  | 31 nM | Kd [1, 4]: 0.061 µM
23 | C[C@@H]1CN(C2CN(C(=O)c3cc4ccc(C(F)(F)F)cc4s3)C2)C[C@H](C)N1C(=O)c1nccs1 [Cpd 954, (2R,6S)-2,6-Dimethyl-1-(1,3-thiazol-2-ylcarbonyl)-4-(1-{[6-(trifluoromethyl)-1-benzothiophen-2-yl]carbonyl}azetidin-3-yl)piperazine] |  | 2740 nM | Kd [1, 7]: 3.44 µM
24 | O=C(c1ccc(-c2cccc(C(F)(F)F)c2)cc1)N1CCN(C2CN(C(=O)c3cc[nH]c3)C2)CC1 [Cpd 1243, 1-[1-(1H-Pyrrol-3-ylcarbonyl)azetidin-3-yl]-4-{[3′-(trifluoromethyl)biphenyl-4-yl]carbonyl}piperazine] | 0.033 µM | 463 nM | 
25 | Cc1nc2cc(C(=O)N3CCN(C4CN(C(=O)c5ccccc5)C4)CC3)ccc2n1C1CCCCC1 [Cpd 523] | 0.686 µM | 3130 nM | 

The next lines start with results.

Row | Kd [1, 3] | IC50 [2] | Structure (SMILES) | other results
26 | 0.028 µM | 127 nM | Cc1ccc2c(C(F)(F)F)c(C(=O)N3CC(N4CCN(C(=O)c5cscn5)CC4)C3)sc2c1 [Cpd 712, 1-(1-{[6-Methyl-3-(trifluoromethyl)-1-benzothiophen-2-yl]carbonyl}azetidin-3-yl)-4-(1,3-thiazol-4-ylcarbonyl)piperazine] | 
27 |  | 51 nM | O=C(c1ccccc1)N1CCN(C2CN(C(=O)c3ccc4c(cnn4-c4ccc(C(F)(F)F)cc4)c3)C2)CC1 [Cpd 575, 5-({3-[4-(Phenylcarbonyl)piperazin-1-yl]azetidin-1-yl}carbonyl)-1-[4-(trifluoromethyl)phenyl]-1H-indazole] | Kd [1, 4]: 0.083 µM
28 |  | 1260 nM | O=C(c1ccc(-c2ccccc2)cc1)N1CC(N2CCN(C(=O)c3c[nH]nn3)CC2)C1 [Cpd 1269] | Kd [1, 5]: 1.16 µM
29 |  | 306 nM | Cc1c(C(=O)N2CC(N3CCN(C(=O)c4cscn4)CC3)C2)sc2cc(F)ccc12 [Cpd 742] | Kd [1, 5]: 0.02 µM
30 | 0.259 µM | 2240 nM | O=C(c1ccc2c(c1)[nH]c(=O)n2-c1ccc(F)cc1)N1CC(N2CCN(C(=O)c3cscn3)CC2)C1 [Cpd 940] | 
31 |  | 240 nM | Cc1c(C(=O)N2CC(N3CCN(C(=O)c4ccc[nH]4)CC3)C2)n(C)c2ccc(Cl)cc12 [Cpd 733] | Kd [1, 7]: 0.453 µM
32 |  | 848 nM | O=C(c1cscn1)N1CCN(C2CN(C(=O)c3[nH]c4nc(C(F)(F)F)ccc4c3Br)C2)CC1 [Cpd 774] | Kd [1, 7]: 0.254 µM
33 |  | 133 nM | Cc1ccnc(-n2ccc3cc(C(=O)N4CC(N5CCN(C(=O)c6cscn6)CC5)C4)ccc32)c1 [Cpd 1197, 1-(4-Methylpyridin-2-yl)-5-({3-[4-(1,3-thiazol-4-ylcarbonyl)piperazin-1-yl]azetidin-1-yl}carbonyl)-1H-indole] | Kd [1, 7]: 0.065 µM
34 |  | 2780 nM | Cc1nc2cc(C(=O)N3CC(N4CCN(C(=O)c5cscn5)CC4)C3)ccc2n1-c1ccc(F)cc1 [Cpd 1291] | Kd [1, 6]: 0.179 µM
35 |  | 112 nM | O=C(c1ccccc1)N1CCN(C2CN(C(=O)c3ccc4c(ccn4-c4ccc(C(F)(F)F)cn4)c3)C2)CC1 [Cpd 586, 5-({3-[4-(Phenylcarbonyl)piperazin-1-yl]azetidin-1-yl}carbonyl)-1-[5-(trifluoromethyl)pyridin-2-yl]-1H-indole] | Kd [1, 7]: 0.086 µM
36 |  | 240 nM | CC(C)=Cc1c(C(=O)N2CC(N3CCN(C(=O)c4ccccc4)CC3)C2)sc2cc(C(F)(F)F)ccc12 [Cpd 511] | Kd [1, 5]: 0.002 µM
37 |  | 539 nM | O=C(c1ccc2c(ccn2-c2cccnc2)c1)N1CC(N2CCN(C(=O)c3ccc[nH]3)CC2)C1 [Cpd 1247, 1-Pyridin-3-yl-5-({3-[4-(1H-pyrrol-2-ylcarbonyl)piperazin-1-yl]azetidin-1-yl}carbonyl)-1H-indole] | Kd [1, 7]: 0.65 µM
38 |  | 5 nM | O=C(c1ccc2nn(-c3cccc(C(F)(F)F)c3)cc2c1)N1CC(N2CCN(C(=O)c3nccs3)CC2)C1 [Cpd 1420] | Kd [1, 4]: 0.08 µM
39 |  | 116 nM | O=C(c1nccs1)N1CCN(C2CN(C(=O)c3cccc4oc(-c5ccccc5F)nc34)C2)CC1 [Cpd 1193] | Kd [1, 5]: 0.017 µM
40 |  | 862 nM | O=C(c1nccs1)N1CCN(C2CN(C(=O)c3ccccc3NCc3ccccc3)C2)CC1 [Cpd 775] | Kd [1, 5]: 0.333 µM
41 |  | 1900 nM | O=C(c1cscn1)N1CCN(C2CN(C(=O)c3cn(-c4cccc(F)c4)c4ccccc34)C2)CC1 [Cpd 1279] | Kd [1, 4]: 1.86 µM
42 |  | 39 nM | O=C(c1nccs1)N1CCN(C2CN(C(=O)c3cc4ccn(-c5ccc(F)cc5)c4cc3Cl)C2)CC1 [Cpd 1416] | Kd [1, 6]: 0.015 µM
43 |  | > 16700 nM | O=C(c1cscn1)N1CCN(C2CN(C(=O)c3cc4nc(C(F)(F)F)ccc4[nH]3)C2)CC1 [Cpd 1450] | Kd [1, 4]: 12.6 µM
44 |  | 14 nM | O=C(c1ccc2nn(-c3cccc(OC(F)(F)F)c3)cc2c1)N1CC(N2CCN(C(=O)c3cscn3)CC2)C1 [Cpd 1422] | Kd [1, 4]: 0.195 µM
45 | 0.034 µM | 100 nM | O=C(c1ccc2c(c1)[nH]c(=O)n2-c1ccc(F)c(F)c1)N1CC(N2CCN(C(=O)c3nccs3)CC2)C1 [Cpd 935] | 
46 | 0.099 µM | 1530 nM | Cc1c(C(=O)N2CC(N3CCN(C(=O)c4nccs4)CC3)C2)c2ccccc2n1C [Cpd 796] | 
47 | 1.67 µM | 3170 nM | O=C(c1ccc(-n2cnc3ccccc32)cc1)N1CC(N2CCN(C(=O)c3cscn3)CC2)C1 [Cpd 1293] | 
